Data published in ChEMBL document CHEMBL5154822, “Novel inhibitors of AChE and Aβ aggregation with neuroprotective properties as lead compounds for the treatment of Alzheimer's disease” (Eur J Med Chem, 2022).
Active and inactive are the calls of the source. No cut-off for these calls is given here.

Columns and labels:
[1] = biological target: T1, Acetylcholinesterase (Mus musculus, UniProt P21836); experiment: Inhibition of AChE in mouse cerebral cortex using acetylthiocholine iodide as substrate preincubated for 10 mins followed by substrate addition and measured for 180 secs by Ellman's spectrophotometric method; assay type: tissue-based
T1 sequence (P21836 whole entry): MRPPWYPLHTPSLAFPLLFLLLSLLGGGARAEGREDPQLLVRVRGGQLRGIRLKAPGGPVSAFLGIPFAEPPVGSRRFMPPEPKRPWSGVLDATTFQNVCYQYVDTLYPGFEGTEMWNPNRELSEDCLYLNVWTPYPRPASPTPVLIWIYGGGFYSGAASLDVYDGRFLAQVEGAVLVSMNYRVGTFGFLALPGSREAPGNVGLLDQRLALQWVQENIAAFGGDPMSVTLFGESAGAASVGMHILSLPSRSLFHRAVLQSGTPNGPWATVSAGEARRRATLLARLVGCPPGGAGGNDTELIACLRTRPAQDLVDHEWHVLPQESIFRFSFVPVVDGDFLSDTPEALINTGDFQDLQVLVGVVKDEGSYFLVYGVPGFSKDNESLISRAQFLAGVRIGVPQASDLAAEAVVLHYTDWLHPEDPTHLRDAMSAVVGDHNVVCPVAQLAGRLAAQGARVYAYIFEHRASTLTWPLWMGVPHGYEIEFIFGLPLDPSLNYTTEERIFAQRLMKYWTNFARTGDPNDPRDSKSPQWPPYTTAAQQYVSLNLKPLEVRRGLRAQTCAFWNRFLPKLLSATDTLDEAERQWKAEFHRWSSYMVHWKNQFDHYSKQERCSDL

[2] = biological target: T2, Acetylcholinesterase (Mus musculus) (UniProt P21836); experiment: Inhibition of AChE in mouse cerebral cortex using acetylthiocholine iodide as substrate at 40 uM preincubated for 10 mins followed by substrate addition and measured for 180 secs by Ellman's spectrophotometric method; assay type: tissue-based; conditions: time 780.0 sec
T2 sequence (whole entry): T1 sequence (P21836 whole entry)

[3] = test system: Mus musculus; experiment: In vivo inhibition of AChE in ig dosed ICR mouse hippocampus using acetylthiocholine iodide as substrate and measured after 1 hr by microplate reader analysis; assay type: functional, organism-based; conditions: dose 1-4 mg/kg, DDE = dose-dependent effect
[4] = test system: SH-SY5Y; experiment: Neuroprotective activity in human SH-SY5Y cells assessed as inhibition of okadaic acid-induced mitochondrial dysfunction by measuring increase in red-to-green fluorescence intensity ratio pretreated for 24 hrs followed by okadaic acid addition for 24 hrs by JC-1 dye based fluorescence analysis; assay type: functional, cell-based; conditions: dose 0.5-5 µM, time 48.0 hrs, DDE = dose-dependent effect
[5] = test system: SH-SY5Y; experiment: Neuroprotective activity in human SH-SY5Y differentiated neuronal cells assessed as inhibition of GA-induced axon morphology defects at 0.5 uM by laser confocal microscope; assay type: functional, cell-based
[6] = biological target: Acetylcholinesterase (Homo sapiens) (UniProt P22303); experiment: Inhibition of AChE in glyceraldehyde-exposed human SH-SY5Y differentiated neuronal cells using acetylthiocholine as substrate at 50 nM by Ellman's spectrophotometric method; assay type: cell-based
[7] = biological target: Acetylcholinesterase (Homo sapiens) (UniProt P22303); experiment: Inhibition of AChE in human SH-SY5Y differentiated neuronal cells assessed as inhibition of GA-induced tau hyperphosphorylation at Ser396 residue at 10 nM by ELISA; assay type: cell-based
[8] = test system: SH-SY5Y; experiment: Neuroprotective activity in human SH-SY5Y differentiated neuronal cells assessed as inhibition of GA-induced cell death by measuring increase in cell viability at 0.5 to 5 uM measured after 24 hrs by MTT assay; assay type: functional, cell-based; conditions: dose 0.5-5 µM
[9] = test system: Mus musculus; experiment: Antialzheimer activity against scopolamine-induced cognitive deficit ICR mouse model assessed as improvement in memory impairment by measuring reduction in number of errors at 0.1 to 0.3 mg/kg, ig by step-through passive avoidance test; assay type: functional, organism-based; conditions: dose 0.1-0.3 mg/kg
[10] = test system: Mus musculus; experiment: In vivo inhibition of AChE in ig dosed ICR mouse cerebral cortex using acetylthiocholine iodide as substrate and measured after 1 hr by microplate reader analysis; assay type: functional, organism-based; conditions: dose 1-4 mg/kg, DDE = dose-dependent effect
[11] = test system: Mus musculus; experiment: In vivo inhibition of AChE in ICR mouse hippocampus using acetylthiocholine iodide as substrate at 4 mg/kg, ig measured after 1 hr by microplate reader analysis; assay type: functional, organism-based
[12] = test system: SH-SY5Y; experiment: Neuroprotective activity in human SH-SY5Y differentiated neuronal cells assessed as inhibition of GA-induced neurite shortening by measuring increase in axon length at 5 uM by laser confocal microscope; assay type: functional, cell-based
[13] = test system: SH-SY5Y; experiment: Neuroprotective activity in human SH-SY5Y differentiated neuronal cells assessed as inhibition of GA-induced axon morphology defects at 5 uM by laser confocal microscope; assay type: functional, cell-based
[14] = test system: Mus musculus; experiment: In vivo inhibition of AChE in ICR mouse cerebral cortex using acetylthiocholine iodide as substrate at 4 mg/kg, ig measured after 1 hr by microplate reader analysis; assay type: functional, organism-based
[15] = test system: SH-SY5Y; experiment: Antioxidant activity against okadaic acid-induced ROS generation in human SH-SY5Y cells assessed as reduction in DCF fluorescence intensity at 5 uM pretreated for 24 hrs followed by okadaic acid addition for 24 hrs by DCFH-DA dye based fluorescence analysis; assay type: functional, cell-based; conditions: time 48.0 hrs
[16] = test system: SH-SY5Y; experiment: Neuroprotective activity in human SH-SY5Y differentiated neuronal cells assessed as inhibition of GA-induced neurite shortening by measuring increase in axon length at 0.5 uM by laser confocal microscope; assay type: functional, cell-based
[17] = test system: Mus musculus; experiment: In vivo inhibition of AChE in ICR mouse cerebral cortex using acetylthiocholine iodide as substrate at 10 mg/kg, ig measured after 1 hr by microplate reader analysis; assay type: functional, organism-based
[18] = Cytotoxicity against human SH-SY5Y cells assessed as maximum non-cytotoxic concentration by CellTiter-Glo luminescent assay; assay type: toxicity, cell-based; conditions: read-out: MNCC
[19] = test system: Mus musculus; experiment: Antialzheimer activity against scopolamine-induced cognitive deficit ICR mouse model assessed as improvement in memory impairment by measuring reduction in number of errors at 5 mg/kg, ig by step-through passive avoidance test; assay type: functional, organism-based
[20] = test system: Mus musculus; experiment: In vivo inhibition of AChE in ICR mouse hippocampus using acetylthiocholine iodide as substrate at 10 mg/kg, ig measured after 1 hr by microplate reader analysis; assay type: functional, organism-based
[21] = Drug concentration in ICR mouse plasma at 1 mg/kg, ig measured after 2 hrs by LC/MS-MS analysis; assay type: ADME, organism-based; conditions: po
[22] = Ratio of drug concentration in brain to plasma in ICR mouse at 1 mg/kg, ig measured after 2 hrs by LC/MS-MS analysis; assay type: ADME, organism-based; conditions: po, read-out: BPR
[23] = Drug concentration in ICR mouse brain at 1 mg/kg, ig measured after 0.5 hrs by LC/MS-MS analysis; assay type: ADME, organism-based; conditions: po, read-out: Ct
[24] = Drug concentration in ICR mouse plasma at 1 mg/kg, ig measured after 0.25 hrs by LC/MS-MS analysis; assay type: ADME, organism-based; conditions: po
[25] = Ratio of drug concentration in brain to plasma in ICR mouse at 1 mg/kg, ig measured after 4 hrs by LC/MS-MS analysis; assay type: ADME, organism-based; conditions: po, read-out: BPR
[26] = Drug concentration in ICR mouse plasma at 1 mg/kg, ig measured after 0.5 hrs by LC/MS-MS analysis; assay type: ADME, organism-based; conditions: po
[27] = Drug concentration in ICR mouse brain at 1 mg/kg, ig measured after 4 hrs by LC/MS-MS analysis; assay type: ADME, organism-based; conditions: po, read-out: Ct
[28] = Drug concentration in ICR mouse brain at 1 mg/kg, ig measured after 0.25 hrs by LC/MS-MS analysis; assay type: ADME, organism-based; conditions: po, read-out: Ct
[29] = Ratio of drug concentration in brain to plasma in ICR mouse at 1 mg/kg, ig measured after 0.25 hrs by LC/MS-MS analysis; assay type: ADME, organism-based; conditions: po, read-out: BPR
[30] = Drug concentration in ICR mouse brain at 1 mg/kg, ig measured after 1 hr by LC/MS-MS analysis; assay type: ADME, organism-based; conditions: po, read-out: Ct
[31] = Drug concentration in ICR mouse plasma at 1 mg/kg, ig measured after 1 hr by LC/MS-MS analysis; assay type: ADME, organism-based; conditions: po
[32] = Ratio of drug concentration in brain to plasma in ICR mouse at 1 mg/kg, ig measured after 0.5 hrs by LC/MS-MS analysis; assay type: ADME, organism-based; conditions: po, read-out: BPR
[33] = Drug concentration in ICR mouse plasma at 1 mg/kg, ig measured after 4 hrs by LC/MS-MS analysis; assay type: ADME, organism-based; conditions: po
[34] = Ratio of drug concentration in brain to plasma in ICR mouse at 1 mg/kg, ig measured after 1 hr by LC/MS-MS analysis; assay type: ADME, organism-based; conditions: po, read-out: BPR
[35] = Drug concentration in ICR mouse brain at 1 mg/kg, ig measured after 2 hrs by LC/MS-MS analysis; assay type: ADME, organism-based; conditions: po, read-out: Ct
[36] = biological target: T1, Acetylcholinesterase; experiment: Mixed-type inhibition of AChE in mouse cerebral cortex using acetylthiocholine iodide as substrate by double reciprocal Lineweaver-Burk plot analysis; assay type: tissue-based

Chain of Acetylcholinesterase (Homo sapiens) (P22303 whole entry): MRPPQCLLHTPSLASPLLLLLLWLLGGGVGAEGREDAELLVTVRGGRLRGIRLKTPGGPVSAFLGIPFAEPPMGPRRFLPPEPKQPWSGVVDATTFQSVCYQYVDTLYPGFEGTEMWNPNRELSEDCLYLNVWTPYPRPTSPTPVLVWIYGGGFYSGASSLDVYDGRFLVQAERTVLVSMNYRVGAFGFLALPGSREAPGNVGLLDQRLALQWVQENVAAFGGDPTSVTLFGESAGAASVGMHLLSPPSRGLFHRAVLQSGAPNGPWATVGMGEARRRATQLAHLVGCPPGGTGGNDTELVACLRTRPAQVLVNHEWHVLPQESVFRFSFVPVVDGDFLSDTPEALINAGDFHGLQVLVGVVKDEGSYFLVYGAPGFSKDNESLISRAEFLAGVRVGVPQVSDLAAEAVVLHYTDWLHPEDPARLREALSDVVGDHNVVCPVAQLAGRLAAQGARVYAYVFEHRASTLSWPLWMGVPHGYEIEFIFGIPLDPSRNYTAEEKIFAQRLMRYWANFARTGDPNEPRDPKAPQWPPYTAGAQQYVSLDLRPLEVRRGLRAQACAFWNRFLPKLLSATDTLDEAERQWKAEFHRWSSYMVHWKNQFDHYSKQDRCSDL

In the case of `COc1cc2c(cc1OC)S(=O)(=O)C(CC1CCN(Cc3ccc(F)c(Cl)c3)CC1)C2` (centres undefined), the IC50 [1] is reported as 0.0115 µM.
`COc1cc2c(cc1OC)S(=O)(=O)/C(=C/C1CCN(Cc3ccccc3)CC1)C2` gave an IC50 [1] of 0.0047 µM.
In the case of `COc1cc2c(cc1OC)S(=O)(=O)/C(=C\C1CCN(Cc3ccccc3)CC1)C2`, the IC50 [1] is reported as 0.0111 µM.
`COc1cc2c(cc1OC)S(=O)(=O)C(CC1CCN(Cc3ccccc3F)CC1)C2` (centres undefined) gave an IC50 [1] of 0.0115 µM.
For `COc1cc2c(cc1OC)S(=O)(=O)C(CC1(F)CCN(Cc3ccc(F)c(Cl)c3)CC1)C2` (centres undefined), the IC50 [1] was 0.0129 µM.
`COc1cc2c(cc1OC)S(=O)(=O)C(CC1(F)CCN(Cc3ccccc3F)CC1)C2` (centres undefined) showed an IC50 [1] of 0.0085 µM.
In the case of `COc1cc2c(cc1OC)S(=O)(=O)C(CC1(F)CCN(Cc3ccccc3C(F)(F)F)CC1)C2` (centres undefined), the IC50 [1] is reported as 3.01 µM.
For `COc1cc2c(cc1OC)S(=O)(=O)/C(=C/C1CCN(Cc3ccccc3)CC1)CCC2`, the inhibition [2] was 32.8%.
With `COc1cc2c(cc1OC)S(=O)(=O)C(F)(CC1CCN(Cc3cccc(F)c3)CC1)C2` (centres undefined) [listing 1 of 2 here] the inhibition [3] was “Dde”, the Activity [4] was “Dde” and the Activity [5] was “Active”. The inhibition [6] was “Active”, the inhibition [7] was “Active” and the Activity [8] was “Active”. The Activity [9] was “Active”, the inhibition [10] was “Dde” and the inhibition [11] was “Active”. For the same compound, the Activity [12] was “Active”, the Activity [13] was “Active” and the inhibition [14] was “Active”. For the same compound, the Activity [15] was “Active” and the Activity [16] was “Active”.
In the case of `COc1cc2c(cc1OC)S(=O)(=O)C(CC1CCN(Cc3ccc(F)cc3F)CC1)C2` (centres undefined), the IC50 [1] is reported as 0.0147 µM.
For `CCOC(=O)/C(=C\C1CCN(Cc2ccccc2)CC1)S(=O)(=O)c1ccc(OC)c(OC)c1`, the inhibition [2] was 12.4%.
`COc1cc2c(cc1OC)S(=O)(=O)/C(=C/C1CCN(Cc3ccccc3)CC1)CC2` showed an IC50 [1] of 1.82 µM.
With `COc1cc2c(cc1OC)C(=O)C(CC1CCN(Cc3ccccc3)CC1)C2` (centres undefined) [DONEPEZIL] the inhibition [17] was “Active”, the Activity [4] was “Dde” and the Activity [5] was “Active”. The MNTC [18] was 100 µM, the Activity [19] was “Active” and the Activity [8] was “Active”. The inhibition [20] was “Active”, the Activity [15] was “Active” and the Activity [16] was “Active”.
Compound `COc1cc2c(cc1OC)S(=O)(=O)C(F)(CC1CCN(Cc3cccc(F)c3)CC1)C2` (centres undefined) [listing 2 of 2 here] has a concentration at 2 h [21] of 2.59 ng/mL, an IC50 [1] of 0.0024 µM and a Kp at 2 h [22] of 8.4. It also gave a concentration at 0.5 h [23] of 18.1 ng/mL, a concentration at 0.25 h [24] of 2.89 ng/mL and a Kp at 4 h [25] of 8.47. The concentration at 0.5 h [26] was 3.42 ng/mL, the concentration at 4 h [27] was 21.7 ng/mL and the MNTC [18] was 10 µM. The concentration at 0.25 h [28] was 10.6 ng/mL, the Kp at 0.25 h [29] was 4.17 and the concentration at 1 h [30] was 21.9 ng/mL. For the same compound, the concentration at 1 h [31] was 3.48 ng/mL, the Kp at 0.5 h [32] was 5.24 and the concentration at 4 h [33] was 2.7 ng/mL. For the same compound, the Kp at 1 h [34] was 6.33, the concentration at 2 h [35] was 21.8 ng/mL and the Ki [36] was 0.0004 µM.
In the case of `COc1cc2c(cc1OC)S(=O)(=O)C(CC1(F)CCN(Cc3ccccc3Cl)CC1)C2` (centres undefined), the IC50 [1] is reported as 0.0055 µM.
For `CO/C(=C\C1CCN(Cc2ccccc2)CC1)S(=O)(=O)c1ccc(OC)c(OC)c1`, the IC50 [1] was 8.44 µM.
